For test [1], the system named is Jurkat (JM) cells. The test is described as follows: NAM/PI staining to determine viability of proliferating Jurkat cells (fluorescence microscopy). The class given is cell-based. Conditions: 99% viable, 10 μL NAM (100 μg/mL DMSO) in 90 μL cells, UV band pass filter. How it is done: Jurkat (JM) cells were grown at 37° C. in a humidified air atmosphere with 5% CO2 in RPMI (Invitrogen, #61870) supplemented with 10% heat-inactivated fetal bovine serum (Invitrogen, #10108-165). 90 μL proliferating Jurkat cells (cell density 1.2×10^6, 99% viable determined using the NC-100 NucleoCounter system following the manufacturer's (ChemoMetec A/S) protocol) were added 10 μL NAM (N-(9-acridinyl)maleimide, Sigma, #01665, CAS no. 49759-20-8) dissolved in DMSO (100 μg NAM pr. mL DMSO) and mixed by pipetting. Cells were loaded into a NucleoCassette, containing the DNA stain propidium iodide (PI). The cells were investigated using an Olympus IX50 fluorescent microscope, and images were captured using a Lumenera CCD camera and in-house developed software. PI and NAM fluorescence were detected using, respectively, U-MWG2 (green long pass: 510-550 nm) and U-MNUA2 (UV band pass, 330-385 nm) filter cubes (Olympus).

The test system of test [2] is MCF-7 cells. The test is described as follows: Intracellular localization of fluorescent NAM in GFP / H2B-GFP expressing cells. It is filed as cell-based. Conditions: 10 μg/ml NAM. From the text: (§1) MCF-7 (ATTC HTB-22) and U2OS (ATTC HTB-96) cells were cultivated in RPMI (Invitrogen, #61870)+10% FCS (Invitrogen, #10108-165). Cells were transfected with, respectively, pEGFP-C1 (Clontech) and pBOS-H2B-GFP (Pharmingen, BD Biosciences) using Lipofectamine 2000 (Invitrogen, #11668-027) according to manufacturer's instructions. Stable cells lines expressing GFP (green fluorescent protein) or H2B-GFP (GFP N-terminally fused to histone H2B) were cultivated in, respectively, T25 flasks and in chamber slides (Nunc) to 75% confluency. Cells from T25 flasks were harvested with 0.5 ml of trypsin (Invitrogen, #25300), neutralized with 5 ml of medium (RPMI+10% FCS), stained with 10 μg/ml NAM (N-(9-acridinyl), maleimide, Sigma, #01665) prior to mounting on a microscope slide. Cells grown on chamber slides were directly stained with 10 μg/ml NAM (N-(9-acridinyl)-maleimide). Olympus IX50 was used for microscopy, and images were captured using a Lumenera CCD camera and in-house developed software. GFP and NAM fluorescence were detected using, respectively, U-MNIB3 and U-MNUA2 filter cubes (Olympus).
(§2) Cells expression GFP or H2B-GFP were used for determining the intracellular localization of fluorescent NAM.

Test [3] has as its system U2OS cells. The description is as above. The class given is cell-based. The conditions noted are these: 10 μg/ml NAM.
Text: as §1, §2

Test [4] concerns primary murine splenocytes. The test is described as follows: NAM/PI staining to determine viability of primary murine splenocytes. The class given is cell-based, C57BL/6 mouse. Conditions: 90% viable, 10 μL NAM (100 μg/mL DMSO) in 90 μL cells. How it is done:
The spleen from a C57BL/6 mouse was placed in ice-cold PBS and gently ground using the end of a sterile syringe. The suspension was centrifuged at 300 g for 10 minutes; the pellet was resuspended in 1 mL 0.83% NH4Cl to lyse erythrocytes and incubated for 3 minutes on ice. The cells were then added 14 mL PBS and centrifuged at 300 g for 10 minutes. The splenocytes were resuspended in RPMI (Invitrogen, #61870) supplemented with 10% heat-inactivated fetal bovine serum (Invitrogen, #10108-165), 100 U/mL penicillin and 100 μg/mL streptomycin (Invitrogen, #15140-122). The cell clumps were allowed to sediment and were removed by pipetting, and the resulting single cell suspension was used. 90 μL splenocytes (cell density 1.7×10^6, 90% viable determined using the NC-100 NucleoCounter system following the manufacturer's (ChemoMetec A/S) protocol) were added 10 μL NAM (N-(9-acridinyl)maleimide, Sigma, #01665, CAS no. 49759-20-8) dissolved in DMSO (100 μg NAM pr. mL DMSO) and mixed by pipetting. Cells were loaded into a NucleoCassette, containing the DNA stain propidium iodide (PI). The cells were investigated using an Olympus IX50 fluorescence microscope, and images were captured using a Lumenera CCD camera and in-house developed software. PI and NAM fluorescence were detected using, respectively, U-MWG2 (green long pass: 510-550 nm) and U-MNUA2 (UV band pass, 330-385 nm) filter cubes (Olympus).

In test [5] the test system is bone marrow cells. The test is described as follows: NAM/PI staining to determine viability of bone marrow derived cells. The conditions noted are these: 93% viable, 10 μL NAM (100 μg/mL DMSO) in 90 μL cells. The class given is cell-based, murine. As for the experimental part: The bone marrow cells were harvested aseptically in the laminar flow hood. Briefly, bilateral tibia and femur were aseptically removed, freed of surrounding soft tissue, and placed in a petri dish with 10 mL 70% ethanol. After 2 minutes they were transferred to ice cold PBS. The bone marrow cavity was then flushed with 5 ml cold PBS using a 5-ml syringe with a 27-gauge needle attached, and the cells were collected from each bone. The cells were centrifuged at 300 g for 10 min, the supernatant was discarded, and cells were washed twice. After the second wash the cell pellet was resuspended in RPMI 1640 (Invitrogen, #61870) supplemented with 10% heat-inactivated fetal bovine serum (Invitrogen, #10108-165), 100 U/mL penicillin and 100 μg/mL streptomycin (Invitrogen, #15140-122). 90 μL bone marrow cells (cell density 1.7×10^6, 93% viable determined using the NC-100 NucleoCounter system following the manufacturer's (ChemoMetec A/S) protocol) were added 10 μL NAM (N-(9-acridinyl)maleimide, Sigma, #01665, CAS no. 49759-20-8) dissolved in DMSO (100 μg NAM pr. mL DMSO) and mixed by pipetting. Cells were loaded into a NucleoCassette, containing the DNA stain propidium iodide (PI). […] PI and NAM fluorescence were detected using, respectively, U-MWG2 (green long pass: 510-550 nm) and U-MNUA2 (UV band pass, 330-385 nm) filter cubes (Olympus).

For `O=C1C=CC(=O)N1c1c2ccccc2nc2ccccc12` [NAM, N-(9-acridinyl)maleimide], the figures for the “staining of cells by NAM versus PI” value in test [1], in test [4] and in test [5] were “nearly all cells in the proliferating Jurkat cell culture were stained by NAM; only exception were PI positive cells”, “nearly all the primary spleen cells were stained by NAM; only exception were PI positive cells” and “nearly all the primary bone marrow cells were stained by NAM; again only exception were PI positive cells”, respectively. Also, the “intracellular localization of fluorescent NAM” value in test [2] (GFP-expressing cell lines) is “found in both the nucleus and cytosol”; in test [2] (H2B-GFP-expressing cells), “found outside as well as inside the nucleus”; in test [3] (GFP-expressing cell lines), “found in both the nucleus and cytosol”; in test [3] (H2B-GFP-expressing cells), “found outside as well as inside the nucleus”.

The values are drawn from patent US8697390B2, “Method and kit for examination of cells using N-(9-acridinyl) maleimide (NAM) or using 7-diethylamino-3-((4′-iodacetyl)amino)phenyl)-4-methylkcoumarin (CPI)” (ChemoMetec A/S, priority 2008, dated 2014).
